Laboratory results published in US8614220B2, “Substituted pyrazolo-quinazoline derivatives, process for their preparation and their use as kinase inhibitors” (priority 2006, dated 2013).
pIC50: −log10 of the molar value.

What follows are compounds tested on A2780 human ovarian cancer cells (assay: In vitro cell proliferation assay (CellTiter-Glo, 72 hours)).
Format: cell-based
Procedure: In Vitro Cell Proliferation Assay
A2780 human ovarian and MCF7 human breast cancer cells (1250 cells/well) were seeded in white 384 well-plates in complete medium (RPMI1640 or EMEM plus 10% Fetal bovine serum) and treated with compounds dissolved in 0.1% DMSO, 24 h after seeding. The cells were incubated at 37° C. and 5% CO2 and after 72 hours the plates were processed using CellTiter-Glo assay (Promega) following the manufacturer's instruction.
CellTiter-Glo is a homogenous method based on the quantification of the ATP present, an indicator of metabolitically active cells. ATP is quantified using a system based on luciferase and D-luciferin resulting into light generation. The luminescent signal is proportional to the number of cells present in culture.
Briefly 25 microL/well reagent solution are added to each wells and after 5 minutes shacking microplates are red by a luminometer. The luminescent signal is proportional to the number of cells present in culture.

Compound | pIC50
Cc1ccc(N2CCN(C)CC2)cc1Nc1ncc2c(n1)-c1c(c(C(=O)O)nn1C)CC2 [Code A98B1C3Z] | 5.89
CN(C)CCCN1CCN(c2ccc(OC(F)(F)F)c(Nc3ncc4c(n3)-c3c(c(C(N)=O)nn3C)CC4)c2)CC1 [Code A101B1C1Z] | 6.28
COc1ccc(CO)cc1Nc1ncc2c(n1)-c1c(c(C(N)=O)nn1C)CC2 [Code A47B1C1Z] | 6.83
NC(=O)c1nn(CCF)c2c1CCc1cnc(Nc3ccccc3OC(F)(F)F)nc1-2 [Code A45B2C1Z] | 6.30
